Data taken from patent publication US20210330611A1, “THERAPY FOR NEUROLOGICAL DISEASES/DISORDERS” (priority 2020, published 2021).
Structures can show the parent of a compound that is named as a salt. Where two headings read alike, the source gives them in different places.

How the values were obtained:
[1] = tested on: LPS-induced microglia activation; assay: Image-based assay of LPS-induced microglia activation (HTS and dose response); type: cell-based, rat; details: for inhibition at 10 µM: Rattus norvegicus, Microglia, read-out: LPS % inhibition
[2] = tested on: primary rat microglia;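 on Fibrin % cell toxicity: share of dead cells sized under 150 µm2 at 10 µM in fibrin-stimulated microglia HTS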
[3] = tested on: primary rat microglia; remark: listed apart in the source;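 on Fibrin % cell toxicity: share of dead cells sized under 150 µm2 at 10 µM in fibrin-stimulated microglia HTS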
[4] = tested on: fibrin-induced microglia activation; assay: Image-based assay of fibrin-induced microglia activation (HTS and dose response); type: cell-based, rat; details: for inhibition at 10 µM: Rattus norvegicus, Microglia, read-out: Fibrin % inhibition
[5] = tested on: fibrin- and LPS-induced microglia activation; assay: cells; type: cell-based, rat
[6] = primary HTS, 10 μM, LPS-stimulated primary microglia
[7] = primary HTS, 10 μM, fibrin-stimulated primary microglia

SMILES | Quadrant (FIG. 5b) ([5]; primary HTS, 10 μM) | inhibition at 10 µM [1, 6] | LPS % cell toxicity ([2]; rat) | Fibrin % cell toxicity ([3]; rat) | inhibition at 10 µM [4, 7] | inhibition at 10 µM [1] | inhibition at 10 µM [4] | Quadrant (FIG. 5b) [5] | further results
CCC(=O)OCC(=O)[C@@]1(OC(=O)CC)[C@@H](C)C[C@H]2[C@@H]3CCC4=CC(=O)C=C[C@]4(C)[C@@]3(F)[C@@H](O)C[C@@]21C [Betamethasone 17,21-dipropionate] | Q4 | – | – | – | – | – | – | – | LPS % inhibition [1, 6]: 29%; LPS % cell toxicity [2]: 0%; Fibrin % cell toxicity [3]: 1%; Fibrin % inhibition [4, 7]: 21%
CC(C[N+](C)(C)C)OC(N)=O (stereo not shown) [Bethanechol] | Q4 | 15% | 0% | 1% | 14% | – | – | – | –
C=C(c1ccc(C(=O)O)cc1)c1cc2c(cc1C)C(C)(C)CCC2(C)C [Bexarotene] | Q4 | 10% | 1% | 1% | -3% | – | – | – | –
c1ccc(-c2ccc(C(c3ccccc3)n3ccnc3)cc2)cc1 (stereo not shown) [Bifonazole] | – | – | 0% | 1% | – | 14% | -3% | Q4 | –
O=C(O)CCCC[C@@H]1SC[C@@H]2NC(=O)N[C@@H]21 [Biotin] | – | – | 0% | 1% | – | 12% | 24% | Q4 | –
CC(=O)Oc1ccc(C(c2ccc(OC(C)=O)cc2)c2ccccn2)cc1 [Bisacodyl] | Q4 | 8% | 0% | 0% | 10% | – | – | – | –
Oc1c(Cl)cc(Cl)cc1Sc1cc(Cl)cc(Cl)c1O [Bithionol] | Q4 | 14% | 0% | 1% | 11% | – | – | – | –
CC(=O)OC1CC2CCC1(C)C2(C)C (stereo not shown) [Bornyl Acetate] | Q4 | 2% | 0% | 0% | -38% | – | – | – | –
CC(C)C[C@H](NC(=O)[C@H](Cc1ccccc1)NC(=O)c1cnccn1)B(O)O [Bortezomib] | – | – | 56% | 86% | – | – | – | – | inhibition at 10 µM ([1]; 48 h, primary microglia HTS, LPS stimulation, increased cell size (>800 μm^2) as marker of activation): 106%; inhibition at 10 µM ([4]; primary microglia HTS, fibrin stimulation, increased cell size (>800 μm^2) as marker of activation): 106%; Quadrant (FIG. 5b) ([5]; quadrant by fibrin and LPS inhibition in HTS of 1907 compounds): Q2
CC[N+](C)(C)Cc1ccccc1Br [Bretylium] | – | – | 0% | 0% | – | -9% | -26% | Q4 | –
Brc1c(NC2=NCCN2)ccc2nccnc12 [Brimonidine] | – | – | 0% | 1% | – | -9% | -36% | Q4 | –
CCOc1ccc(NC(=O)CC(C)O)cc1 (stereo not shown) [Bucetin] | Q4 | 12% | 0% | 0% | -25% | – | – | – | –
O=C1CC2(CCCC2)CC(=O)N1CCCCN1CCN(c2ncccn2)CC1 [Buspirone] | – | – | 0% | 0% | – | 8% | -13% | Q4 | –
CS(=O)(=O)OCCCCOS(C)(=O)=O [Busulfan] | Q4 | 2% | 0% | 0% | 1% | – | – | – | –
O=C(O)CCC(=O)OC[C@@H](NC(=O)C(Cl)Cl)[C@H](O)c1ccc([N+](=O)[O-])cc1 [CHLOR[…]] | – | – | 1% | 2% | – | 14% | 24% | Q4 | –
CCCCCOC(=O)Nc1nc(=O)n([C@@H]2O[C@H](C)[C@@H](O)[C@H]2O)cc1F [Capecitabine] | Q4 | 25% | 1% | 1% | 43% | – | – | – | –
CCN(CC)CCOCCOC(=O)C1(c2ccccc2)CCCC1 [Carbetapentane Citrate] | Q4 | 7% | 0% | 1% | -13% | – | – | – | –
CC(C(=O)O)c1ccc2c(c1)[nH]c1ccc(Cl)cc12 (stereo not shown) [Carprofen] | Q4 | 15% | 0% | 0% | -2% | – | – | – | –
CC=CC1=C(C(=O)O)N2C(=O)[C@@H](NC(=O)[C@H](N)c3ccc(O)cc3)[C@H]2SC1 [Cefprozil] | Q4 | – | – | – | – | – | – | – | LPS % inhibition [1, 6]: 14%; LPS % cell toxicity [2]: 0%; Fibrin % cell toxicity [3]: 0%; Fibrin % inhibition [4, 7]: 3%
CO/N=C(\C(=O)N[C@@H]1C(=O)N2C(C(=O)O)=C(CSc3nc(=O)c(=O)[nH]n3C)CS[C@H]12)c1csc(N)n1 [Ceftriaxone] | – | – | 0% | 1% | – | 12% | -16% | Q4 | –
CO/N=C(\C(=O)N[C@@H]1C(=O)N2C(C(=O)O)=C(COC(N)=O)CS[C@H]12)c1ccco1 [Cefuroxime Sodium] | Q4 | – | 1% | 1% | – | – | – | – | LPS % inhibition [1, 6]: 19%; Fibrin % inhibition [4, 7]: −12%
CO/N=C(\C(=O)N[C@@H]1C(=O)N2C(C(=O)O)=C(COC(N)=O)CS[C@H]12)c1ccco1 [Cefuroxime] | Q4 | – | 0% | 1% | – | – | – | – | LPS % inhibition [1, 6]: 2%; Fibrin % inhibition [4, 7]: 16%
Cc1ccc(-c2cc(C(F)(F)F)nn2-c2ccc(S(N)(=O)=O)cc2)cc1 [Celecoxib] | Q4 | 21% | 0% | 0% | -31% | – | – | – | –
OC[C@@H](O)[C@H]1O[C@@H]2O[C@H](C(Cl)(Cl)Cl)O[C@@H]2[C@H]1O [Chloralose] | – | – | 0% | 1% | – | 9% | -14% | Q4 | –
O=C(O)CCCc1ccc(N(CCCl)CCCl)cc1 [Chlorambucil] | Q4 | -7% | 0% | 1% | 8% | – | – | – | –
CCN(CC)CCCC(C)Nc1ccnc2cc(Cl)ccc12 (stereo not shown) [Chloroquine] | – | – | 0% | 0% | – | 7% | 2% | Q4 | –
Oc1c(Cl)cc(Cl)c2cccnc12 [Chloroxine] | Q4 | 8% | 0% | 1% | -17% | – | – | – | –
CN(C)CCC(c1ccc(Cl)cc1)c1ccccn1 (stereo not shown) [Chlorphenamine] | – | 13% | 0% | 1% | 0% | – | – | Q4 | –
CCOP(=S)(OCC)Oc1nc(Cl)c(Cl)cc1Cl [Chlorpyrifos] | Q4 | 1% | 0% | 1% | -7% | – | – | – | –
